Test [1] deals with T1, human GPR40 (Homo sapiens, UniProt O14842).
T1 construct: expressed in transfected cells; host or cells: CHO cells stably transfected with GPR40 and Aequorin
Description: Inositol phosphate accumulation assay. The settings on record: A9 cell line stably transfected with GPR40; 1 hour at 37° C.; read-out: IP3 EC50. Type of test: cell-based. The essentials:
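A9 cells stably expressing GPR40, labelled 16 h with ^3H-inositol in inositol-free medium. Compounds in HBSS/10 mM LiCl with HSA added for 1 h at 37° C; formic acid quench, inositol phosphates read by SPA scintillation.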

For test [2], the target named is T1, human GPR40. Description: Cell-based aequorin assay. The note with it: CHO cells stably transfected with GPR40 and aequorin; 0.01% HSA.

pEC50: −log10 of the molar value.

T1 sequence (O14842 whole entry): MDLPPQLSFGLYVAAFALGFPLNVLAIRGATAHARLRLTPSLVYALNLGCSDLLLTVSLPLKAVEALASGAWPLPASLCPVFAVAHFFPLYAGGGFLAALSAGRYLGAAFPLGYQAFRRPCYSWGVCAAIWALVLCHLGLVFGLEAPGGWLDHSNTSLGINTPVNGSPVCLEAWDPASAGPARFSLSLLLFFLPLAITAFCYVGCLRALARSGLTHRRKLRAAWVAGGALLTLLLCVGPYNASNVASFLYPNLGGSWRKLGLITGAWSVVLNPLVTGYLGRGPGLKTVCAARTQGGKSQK

A word on the pEC50: it is the EC50 on a negative log10 scale, so that one unit is a factor of ten. For the compound `COc1ccc(F)c(-c2ccc(COc3ccc4c(c3)[C@]3(CC4)C[C@H]3C(=O)O)cc2CC(C)(C)C)c1` [Example 13], the pEC50 was more than 8.00 on human GPR40 [1] and 7.00 to 8.00 at human GPR40 [2].
On to `COc1ccc(F)c(-c2ccc(COc3ccc4c(c3)[C@]3(CCC4)C[C@H]3C(=O)O)cc2C2=CCCC2(C)C)c1` [Example 49], for which the results for the pEC50 at human GPR40 [1] and at human GPR40 [2] were 7.00 to 8.00 and 6.00 to 7.00, respectively.
Regarding `COc1ccc(F)c(-c2cc(F)c(COc3ccc4c(c3)[C@]3(CC4)C[C@H]3C(=O)O)cc2[C@H]2CCCC2(C)C)c1` (single isomer, unassigned) [Example 14], the pEC50 was more than 8.00 on human GPR40 [1] and 6.00 to 7.00 at human GPR40 [2].
`COc1ccc(F)c(-c2ccc(COc3ccc4c(c3)[C@]3(CCC4)CC[C@@H]3C(=O)O)cc2[C@@H]2CCCC2(C)C)c1` (single isomer, unassigned) [Example 154]: the pEC50 on human GPR40 [1] is 7.00 to 8.00; on human GPR40 [2], 6.00 to 7.00.
The like results for `COc1ccc(F)c(-c2ccc(COc3ccc4c(c3)[C@]3(CC4)C[C@H]3C(=O)O)cc2[C@@H](OC)C(C)(C)C)c1` (single isomer, unassigned) [Example 12] were, in that order, more than 8.00 and 7.00 to 8.00.
`COc1cc(-c2ccc(COc3ccc4c(c3F)[C@]3(CC4)C[C@H]3C(=O)O)cc2[C@@H]2CCCC2(C)C)c(Cl)cn1` (stereo in doubt) [Example 125]: the pEC50 at human GPR40 [1] was 7.00 to 8.00; at human GPR40 [2], 6.00 to 7.00.
With `CCCCOc1cc(COc2ccc3c(c2)[C@]2(CC3)C[C@H]2C(=O)O)ccc1-c1cc(OC)ccc1F` [Example 24], the figures for the pEC50 on human GPR40 [1] and on human GPR40 [2] were 7.00 to 8.00 and 6.00 to 7.00, respectively.

(Values after patent publication US8748462B2, “Spirocyclic GPR40 modulators” (Amgen Inc., priority 2008, dated 2014).)
